Data taken from patent publication US11926599B1, “1-(2-chlorobenzylideneamino)-5,5-diphenylimidazolidine-2,4-dione as an antimicrobial compound” (KING FAISAL UNIVERSITY, priority 2023, dated 2024).

What was measured:
Format in all cases: cell-based
Bacillus cereus = test: Agar plate disc-diffusion, antibacterial inhibition zone; conditions: nutrient agar, 37° C., 48 hours, DMSO zone subtracted
Method: (§1) The agar plate disc-diffusion method was applied. […] The discs were then placed onto the surface of agar plates (nutrient agar for bacteria and Sabouraud's dextrose agar for fungi) seeded with the test organism. Each plate contained 15 mL of the agar medium, previously seeded with 0.2 mL of the broth culture of each organism pregrown for 18 hours. The plates were incubated at 37° C. for 48 hours, and 72 hours for fungi. The inhibition zones was measured in millimeter. Discs impregnated with DMSO were used as a control, and its inhibition zone was subtracted from the tested compound actual inhibition zone.
(§2) The results of the antimicrobial testing can be observed in Tables 1 and 2, below, with ciprofloxacin serving as a reference.

Escherichia coli = test: as above; conditions: nutrient agar, 37° C., 48 hours, DMSO zone subtracted
Method: as §1, §2

Pseudomonas aeruginosa = test: as above; conditions: nutrient agar, 37° C., 48 hours, DMSO zone subtracted
Method: as §1, §2

Staphylococcus aureus = test: as above; conditions: nutrient agar, 37° C., 48 hours, DMSO zone subtracted
Method: as §1, §2

Aspergillus flavus = test: Agar plate disc-diffusion, antifungal inhibition zone; conditions: Sabouraud's dextrose agar, 72 hours, DMSO zone subtracted
Method: as §1, §2

[1] = tested on: Chrysosporium keratinophilum; test: as above; conditions: Sabouraud's dextrose agar, 72 hours, DMSO zone subtracted
Method: as §1, §2

[2] = A = concentration of comp. = 10,000 μL
[3] = B = concentration of comp. = 30.000 μL
[4] = C = concentration of comp. = 50,000 μL

`O=C1NC(=O)C(c2ccccc2)(c2ccccc2)N1/N=C/c1ccccc1Cl` [Compound 4, 1-(2-chlorobenzylideneamino)-5,5-diphenylimidazolidine-2,4-dione] was tested, and the “inhibition zone, Bacillus Cereus, A” value (Bacillus cereus; [2]) was 26 millimeter, the “inhibition zone, Bacillus Cereus, B” value (Bacillus cereus; [3]) was 29 millimeter and the “inhibition zone, Bacillus Cereus, C” value (Bacillus cereus; [4]) was 41 millimeter. The “inhibition zone, Escherichia coli, A” value (Escherichia coli; [2]) was 27 millimeter, the “inhibition zone, Escherichia coli, B” value (Escherichia coli; [3]) was 32 millimeter and the “inhibition zone, Escherichia coli, C” value (Escherichia coli; [4]) was 51 millimeter. The “inhibition zone, Pseudomonas aeruginosa, A” value (Pseudomonas aeruginosa; [2]) was 20 millimeter, the “inhibition zone, Pseudomonas aeruginosa, B” value (Pseudomonas aeruginosa; [3]) was 24 millimeter and the “inhibition zone, Pseudomonas aeruginosa, C” value (Pseudomonas aeruginosa; [4]) was 34 millimeter. For the same molecule, the “inhibition zone, Staphylococcus aureus, A” value (Staphylococcus aureus; [2]) was 10 millimeter, the “inhibition zone, Staphylococcus aureus, B” value (Staphylococcus aureus; [3]) was 17 millimeter and the “inhibition zone, Staphylococcus aureus, C” value (Staphylococcus aureus; [4]) was 20 millimeter. For the same molecule, the “inhibition zone, Aspergillus flavus, A” value (Aspergillus flavus; [2]) was 25 millimeter, the “inhibition zone, Aspergillus flavus, B” value (Aspergillus flavus; [3]) was 24 millimeter and the “inhibition zone, Aspergillus flavus, C” value (Aspergillus flavus; [4]) was 36 millimeter. For the same molecule, the “inhibition zone, Chrysosporium keratinophilum, A” value [1, 2] was 27 millimeter, the “inhibition zone, Chrysosporium keratinophilum, B” value [1, 3] was 29 millimeter and the “inhibition zone, Chrysosporium keratinophilum, C” value [1, 4] was 50 millimeter.
